Patent US20040156802A1, “Cosmetics or external preparations for skin” (priority 2001, published 2004)
Where “and” joins values, the source holds several entries; their conditions need not be identical. Identical values can stand only once.

Key:
[1] = test system: rabbits (New Zealand White species, male); experiment: Test on the primary irritation of the skin; type: in vivo, rabbit; settings: for Evaluation Value For irritation: alone, shaved rabbit back, blocked 24 hours; for effect on the primary irritation of the skin when used in combination with the irritant: in comparison with the irritant used singly, rabbit
Protocol: Each back portion of rabbits (New Zealand White species, male) was shaved and each of the test compounds was applied thereto. Each of the test compound-applied portions was blocked for 24 hours, After 24, 48, 72 and 168 hours from the time of applying the test compound, the judgments were conducted for the erythema and edema appeared on the test compound-applied portion based on their standards indicated in table 1. The average evaluation value in each time at which the judgment was conducted was calculated (the value obtained by dividing the combined value of the evaluation value for erythema and that for edema by the number of animal used in the test). In addition, the average evaluation value in each time at which the judgment was conducted was all added up and the total value was divided by the number of judgment (4 times) to make the evaluation value of the primary initation.

adult men [2] = experiment: Test in human on function of inhibiting the irritation induced by an organic acid (test solution applied 3 minutes before glycolic acid); type: in vivo; settings: glycolic acid concentration: 10%
Protocol: A series of tests were conducted by four adult men with respect to the function of inhibiting the irritation of the skin induced an organic acid. There were prepared a solution of glycolic acid dissolved in a 25% aqueous ethanol solution (the concentration of glycolic acid: 10%) and a test solution of N, N′-diacetyl-L-cystine dimethyl ester dissolved in the same solvents (the concentration of N, N′-diacetyl-L-cystine dimethyl ester: 10%). A solution of only the solvent was separately prepared as the control solution. After all of the panelists washed their faces, either test solution or control solution was applied to each right cheek of the their faces with a cotton bud. After additional 3 minutes, the glycolic acid solution was applied to the same portion as in the above and the irritation which each of the panelists felt was recorded as the score every a minute after a minute from the time of applying the glycolic acid solution for 10 minutes based on its evaluation standards shown below. […] After additional 3 minutes, the glycolic acid solution was applied to the same portion and the irritation which each of the panelists felt at the applied portion was similarly recorded as the score every a minute after a minute from the time of applying the glycolic acid solution for 10 minutes. […]

adult men [3] = experiment: Test in human on function of inhibiting the irritation induced by an organic acid (solution B applied 4 minutes before glycolic acid solution A); type: in vivo; settings: glycolic acid concentration: 20%
Protocol: A series of tests were conducted by three adult men with respect to the function of inhibiting the irritation of the skin induced an organic acid. […] After all of the panelists washed their faces, solution B (or solution C) was applied to each right cheek (or each left cheek) of the their faces with a cotton bud. […] The irritation which each of the panelists felt at the solution-applied portion was recorded as the score every a minute after a minute from the time of applying the solution for 5 minutes based on its evaluation standards shown below. In addition, the function of the test compound (N, N′-diacetyl-L-cystine dimethyl ester) for inhibiting the irritation was judged based on the judging standards shown below.

an adult = experiment: Test in human on function of inhibiting erythema and irritation (tape-stripped forearm, protopic ointment); type: in vivo; settings: skin where the barrier function was reduced by tape stripping (30 times)
Protocol: A series of tests were conducted by an adult With respect to the function of inhibiting the skin erythema and irritation induced by an organic acid. A test solution of N, N′-diacetyl-L-cystine dimethyl ester dissolved in a 25% aqueous ethanol solution (the concentration of N, N′-diacetyl-L-cystine dimethyl ester; 10%) was prepared. A solution of only the solvents was separately prepared as control solution. 30 Times of tape stripping were conducted on the inward portion of the panelist's forearm. To the portion which the tape stripping procedures have been conducted was applied {circle over (2)} test solution (or control solution) in addition to {circle over (1)} control (any solvent is not applied). After 4 minutes, to each of the portions ({circle over (1)} control portion (both forearms) {circle over (2)} test solution-applied portion and {circle over (3)} control solution-applied portion) was applied protopic ointment (tacrolimus: 1 mg/g), and the erytherma and irritation appeared on each of the portions after an additional 5 minutes were evaluated. […] In the skin where the barrier function of the skin was reduced by tape stripping (30 times), erytherma and irritation caused by the protopic ointment were suppressed by N, N′-diacetyl-L-cystine dimethyl ester.

[4] = concentration 3%, erythema + edema averaged over 24, 48, 72 and 168 hours

## CCCCCCCCCCCCCCCCCC[N+](C)(C)C.[Cl-] [Stearyl trimethyl ammonium chloride]
[1]; [4]
  Evaluation Value For irritation: 3.7

## CCCCCCCCCCCCOS(=O)(=O)[O-].[Na+] [Sodium lauryl sulfate]
[1]; concentration 5%, erythema + edema (each 0-4) averaged over judgments at 24, 48, 72 and 168 hours, sulfate
  Evaluation Value For irritation: 6.6 and 6.4

## COC(=O)[C@H](CSSC[C@H](NC(C)=O)C(=O)OC)NC(C)=O [N,N′-diacetyl-L-cystine dimethyl ester]
[1]
  effect on the primary irritation of the skin when used in combination with the irritant: mitigates the primary irritation of the skin
Adult men [2]
  inhibitory function in human toward irritation caused by glycolic acid: exhibited inhibitory function
Adult men [3]
  inhibitory function in human toward irritation caused by glycolic acid: exhibited inhibitory function
An adult
  erythema and irritation caused by the protopic ointment: suppressed

## Benzalkonium chloride
[1]; [4]
  Evaluation Value For irritation: 5.3

## CC(O)C(=O)O (stereo not drawn) [Lactic acid]
[1]; concentration 70%, erythema + edema averaged over 24, 48, 72 and 168 hours
  Evaluation Value For irritation: 1.4

## CCCCCCCC(=O)N[C@@H](CSSC[C@H](NC(=O)CCCCCCC)C(=O)OC)C(=O)OC [N,N′-dioctanoyl-L-cystine dimethyl ester]
[1]
  effect on the primary irritation of the skin when used in combination with the irritant: mitigates the primary irritation of the skin
